Results as given in patent US11376306B2, “Peptides and uses therefor as antiviral agents” (priority 2017, dated 2022).
Positions of bridges follow the written chain, without caps; N, C: chain ends. Non-standard residues stand in square brackets, D forms with d. Residues, ends and D or L forms follow the SMILES beside them.

Key:
HSV-2 = assay: Cytopathic effect (CPE) assay, HSV-2 on Vero cells; format: cell-based, Herpes Simplex Virus; details: MOI 0.02, 4 days
Description: FIG. 3: Effect of PSP VI A1 against HSV-2 in vitro. The ability of the peptide to inhibit the replication of HSV was determined by CPE assay on Vero cells. Experiments were done in triplicates and carried out in the presence of DMSO or increasing concentration of test compound.
(§1) Cytopathic effect (CPE) assay for HSV, RSV and CMV: Appropriate cells were seeded into 96 well plates and incubated overnight until they reached ˜70% confluency. Viruses were treated with various concentrations of peptide or vehicle for 90 minutes at 4° C. and added on to the confluent monolayer of cells for the rest of the assay. At the end of the incubation period, the viability of the cells was determined by adding MTT reagent and incubating the plates at 37° C. for 2-4 hours at 5% CO2. After the incubation, 100% isopropanol was added to solubilise the formazan crystals and the absorbance was recorded at 540 nm subtracting the background at 620 nm.
(§2) Pauwels formula (shown below) was used to calculate the percent cell protection achieved by the positive control or test compounds.
(§3) Percent cell protection=([ODt]virus−[ODc]virus/[ODc]mock−[ODc]virus)×100
(§4) These percentages were used to determine the ECso which were calculated by non-linear regression analysis with IDBS XLFit Excel Add-in Version 5.4.0.8

CMV AD169 = assay: Cytopathic effect (CPE) assay, CMV AD169 on HFFF-2 cells; format: cell-based, Cytomegalovirus; details: CPE assay on HFFF-2 cells, MOI 0.006, 14 days
Description: (§5) FIG. 5: Effect of PSP VI A1 against CMV in vitro. The ability of the peptide to inhibit the replication of CMV was determined by CPE assay on HFFF-2 cells. Experiments were done in triplicates and carried out in the presence of DMSO or increasing concentration of test compound.
as §1, §2, §3, §4

RSV A2 = assay: Cytopathic effect (CPE) assay, RSV A2 on Hep-2 cells; format: cell-based, Respiratory syncytial virus; details: CPE assay on Hep-2 cells, MOI 0.02, 5 days
Description: as §5, with “1:” for “5:”, “H-RRKKcwwftfiac-OH (PSP” for “PSP”, “A1)” for “A1”, “RSV A2” for “CMV”, “Hep-2” for “HFFF-2”
as §1, §2, §3, §4

HIV-1 92UG029 = format: cell-based, Human Immunodeficiency Virus
Description: FIG. 7: Effect of PSP VI A1 against HIV-1 92UG029 in vitro. The ability of the peptide to inhibit the replication of HIV was determined by reverse transcriptase assay on PBMCs. Experiments were carried out in the presence of DMSO or increasing concentration of peptide. Results are presented as mean value of triplicate measurements.
Anti-HIV Efficacy Evaluation in Fresh Human PBMCs: PBMCs were infected with various concentrations of peptide treated viruses and incubated at 37° C., 5% CO2 for seven days. After this incubation, the cells were centrifuged down and the supernatants were collected for reverse transcriptase activity (RT) assay. The cytotoxic effects of the compounds were studied with the addition of MTS to the cells following the removal of the supernatant. Data analysis for IC50 and TC50 was done by the CRO with their in house computer program.
Reverse transcriptase activity assay: Reverse transcriptase (RT) assay was carried out in a microtiter plate. Briefly Tritiated thymidine triphosphate (3H-TTP, 80 Ci/mmol, NEN;(GE Healthcare) was prepared as a stock solution by combining 150 μL poly rA (20 mg/mL) with 0.5 mL oligo dT (20 units/mL) and 5.35 mL sterile dH2O. Fresh RT reaction buffer was prepared with 125 μL 1.0 M EGTA, 125 μL dH2O, 125 μL 20% Triton X100, 50 μL 1.0 M Tris (pH 7.4), 50 μL 1.0 M DTT, and 40 μL 1.0 M MgCl2. The final reaction mixture was obtained by mixing 1 part of 3H-TTP, 4 parts dH2O, 2.5 parts poly rA:oligo dT stock and 2.5 parts reaction buffer. Ten microliters of this reaction mixture was added to the microtiter plate and 15 μL of virus containing supernatant is added and mixed. Then the plate was incubated at 37° C. for 60 minutes. After the incubation, the reaction volume was spotted onto DE81 filter-mats (Wallac), washed extensively with 5% sodium phosphate buffer or 2× SSC (Life Technologies), then in distilled water which was followed by 70% ethanol wash and air drying. Standard liquid scintillation techniques were used to quantify the incorporated radioactivity (counts per minute, CPM).

[1] = Cytotoxicity Assay 2 (CellTiter 96 AQueous One) on A549 cells; format: cell-based; details: human, 0.1-100 μM, no significant toxicity, read-out: CE50 (Cytotoxic Effect 50)
Description: (§6) Cytotoxicity Assay 2: MDCK cells or A549 cells (˜5000 cells/well) are grown overnight on 96 well plates. The media is replaced by serially diluted peptides and incubated again for 24/48 h. The culture medium is removed and 20 μl of CellTiter 96® AQueous One Solution […] (Promega, Wis., USA) is added and incubated at 37° C. for 2 h. The optical density is measured at 490 nm in an microplate reader (iMARK, BioRad, USA).
(§7) Cytotoxic effects of anti-viral peptides on MDCK cells or A549 cells: The cytotoxic effects of anti-viral peptides are shown in FIG. 12 and FIG. 13 which are assessed as explained in Example 1. Briefly, the MDCK cells/A549 cells are treated with either 0 μM peptide (Mock) or increasing concentrations (i.e., 0.1 μM, 0.3 μM, 1 μM, 3 μM, 10 μM, 30 μM and 100 μM) of PSP V A19 and PSP VI A1 and the cell death is determined by 48 hours post infection by a cytotoxicity assay with CellTiter 96® AQueous One Solution cell proliferation assay kit (Promega, USA) as explained by manufacturer. The results are normalized to the mock treated cells.

[2] = Cytotoxicity Assay 2 (CellTiter 96 AQueous One) on MDCK cells; format: cell-based; details: dog, 0.1-100 μM, no significant toxicity, read-out: CE50 (Cytotoxic Effect 50)
Description: as §6, §7

| IC50 (HIV-1 92UG029) [µM] | SMILES | EC50 (HSV-2) [µM] | EC50 (CMV AD169) [µM] | EC50 (RSV A2) [µM] | CC50 at 48 h [1] [µM] | CC50 at 48 h [2] [µM] |
| --- | --- | --- | --- | --- | --- | --- |
|  | CC[C@@H](C)[C@H]1NC(=O)[C@@H](Cc2ccccc2)NC(=O)[C@@H]([C@H](C)O)NC(=O)[C@@H](Cc2ccccc2)NC(=O)[C@@H](Cc2c[nH]c3ccccc23)NC(=O)[C@@H]([C@H](C)O)NC(=O)[C@H](NC(=O)[C@H](CCCCN)NC(=O)[C@H](CCCCN)NC(=O)[C@H](CCCNC(=N)N)NC(=O)[C@@H](N)CCCNC(=N)N)CSSC[C@H](C(=O)O)NC(=O)[C@@H](CC(N)=O)NC1=O [PSP IV A17, H-RRKKctwftfinc-OH] (H-RRKK[dC][dT][dW][dF][dT][dF][dI][dN][dC]-OH; disulfide 5-13) | ~30 | 18.9 | 12.6 |  |  |
| 79.1 | CC[C@@H](C)[C@@H](NC(=O)[C@@H](Cc1ccccc1)NC(=O)[C@H](NC(=O)[C@@H](Cc1ccccc1)NC(=O)[C@@H](Cc1c[nH]c2ccccc12)NC(=O)[C@H](NC(=O)[C@H](CCCCN)NC(=O)[C@H](CCCCN)NC(=O)[C@H](CCCNC(=N)N)NC(=O)[C@@H](N)CCCNC(=N)N)[C@H](C)O)[C@H](C)O)C(=O)N[C@H](CC(N)=O)C(=O)O [PSP IV A17-LS, H-RRKKtwftfin-OH] (H-RRKK[dT][dW][dF][dT][dF][dI][dN]-OH) |  |  |  |  |  |
|  | CC[C@@H](C)[C@H]1NC(=O)[C@@H](Cc2ccccc2)NC(=O)[C@@H]([C@H](C)O)NC(=O)[C@@H](Cc2ccccc2)NC(=O)[C@@H](Cc2c[nH]c3ccccc23)NC(=O)[C@@H](Cc2c[nH]c3ccccc23)NC(=O)[C@H](NC(=O)[C@H](CCCCN)NC(=O)[C@H](CCCCN)NC(=O)[C@H](CCCNC(=N)N)NC(=O)[C@@H](N)CCCNC(=N)N)CSSC[C@H](C(=O)O)NC(=O)[C@@H](CC(N)=O)NC1=O [PSP V A19, H-RRKKcwwftfinc-OH] (H-RRKK[dC][dW][dW][dF][dT][dF][dI][dN][dC]-OH; disulfide 5-13) |  |  |  | > 30 | > 30 |
| 66.5 | CC[C@@H](C)[C@H]1NC(=O)[C@@H](Cc2ccccc2)NC(=O)[C@@H]([C@H](C)O)NC(=O)[C@@H](Cc2ccccc2)NC(=O)[C@@H](Cc2c[nH]c3ccccc23)NC(=O)[C@@H](Cc2c[nH]c3ccccc23)NC(=O)[C@H](N)CSSC[C@H](C(=O)O)NC(=O)[C@@H](CC(N)=O)NC1=O [PSP V A19-C, H-cwwftfinc-OH] (H-[dC][dW][dW][dF][dT][dF][dI][dN][dC]-OH; disulfide 1-9) |  |  |  |  |  |

| SMILES | IC50 (HIV-1 92UG029) [µM] | EC50 (HSV-2) [µM] | EC50 (CMV AD169) [µM] | EC50 (RSV A2) [µM] | CC50 at 48 h [1] [µM] | CC50 at 48 h [2] [µM] |
| --- | --- | --- | --- | --- | --- | --- |
| CC[C@@H](C)[C@H]1NC(=O)[C@@H](Cc2ccccc2)NC(=O)[C@@H]([C@H](C)O)NC(=O)[C@@H](Cc2ccccc2)NC(=O)[C@@H](Cc2c[nH]c3ccccc23)NC(=O)[C@@H](Cc2c[nH]c3ccccc23)NC(=O)[C@H](NC(=O)[C@H](CCCCN)NC(=O)[C@H](CCCCN)NC(=O)[C@H](CCCNC(=N)N)NC(=O)[C@@H](N)CCCNC(=N)N)CSSC[C@H](C(=O)O)NC(=O)[C@@H](C)NC1=O [PSP VI A1, H-RRKKcwwftfiac-OH] (H-RRKK[dC][dW][dW][dF][dT][dF][dI][dA][dC]-OH; disulfide 5-13) | 60.8 | ~30 | 13.8 | 17.8 | > 30 | > 30 |
